“Also recorded” adds a separate entry of the source. Each block holds one substance with its values, some of them ahead of it.
Assays:
Protein 5 = experiment: Protein stabilization, purity by SEC-UPLC; type: physicochemical; settings: Protein 5 formulation, 0.2% PLX188 or 0.04% PS20, PS80 or VEDS, one month at 30° C.
Protocol: A liquid formulation containing Protein 5 was prepared as herein described. […] (FIG. 8). A pull point was taken after this time and used for the following analysis.

[1] = system: host cell proteins (HCPs) of Protein 4; experiment: Enzymatic degradation of surfactant in protein 4 formulation; type: physicochemical; settings: 0.02% PS80 or 0.04% other surfactants, one month at 5° C. or 40° C., HPLC
Text: Therefore, a formulation containing protein 4 also contains the enzymes responsible for polysorbate degradations and it is a suitable proxy for testing the propensity of enzymatic degradation during shelf life in real-world conditions.

[2] = Quiescence stability study, oxidative and hydrolytic degradation of surfactant in Protein 2 formulation; settings: six months at 25° C.; for surfactant content left: HPLC main peak
Protocol: A pull point was taken every month and a half (TO, T1.5m, T3m, T4.5m and T6m) and frozen for storage.
The surfactant content was measured for all pull points of a specific surfactant in a single series by HPLC and the analysis was performed by a standard baseline correction followed by integration of the main peak, representing the integer (not degraded) surfactant.

[3] = Surfactant stability under oxidative stress (H2O2); type: physicochemical; settings: 0.25 M and 2.5 M H2O2, 6 days at 40° C., vs non-treated control
Protocol: (§1) Polysorbate 20/80 suffers from chemical and enzymatic degradation mechanisms as described earlier. In order to test the amphiphilic surfactants of the disclosure for stability against oxidative and hydrolytic stress, the following forced degradation assay was performed using hydrogen peroxide and various buffers to mimic those stress conditions. The aim was to mimic chemical degradation pathways that surfactants would encounter during shelf life.
(§2) H2O2(0.25 M and 2.5 M) was added to formulations containing surfactants and subsequently incubated for 6 days at 40° C. in order to mimic oxidative stress. In addition, surfactants were added to different buffer types (e.g., histidine, citrate, phosphate and succinate buffer) and exposed to accelerated degradation stress such as temperature stress (50° C. for 1 month) at different pH (5.5 and 6.5) in order to mimic chemical degradation pathways (e.g., oxidation, hydrolysis). Control samples were frozen to avoid degradation (FZ). Chromatography methods were used to determine the surfactant content of formulations after accelerated conditions by comparing it to the amount of surfactant spiked into the buffer at the beginning of the experiment.

[4] = Surfactant stability under pH and temperature stress in different buffers; type: physicochemical; settings: pH 5.5 and 6.5, 50° C. for 1 month, vs frozen control (FZ)
Protocol: as §1, §2

Basophile cells = experiment: Basophile activation assay (B-cell activation); type: cell-based, human; settings: compared to polysorbate and B-cell activating positive control
Protocol: Basophile activation assay: Human whole blood was used to purify B-cells using an in vitro B-cell activation kit (Cellonic, Basotest, Cat #10-0500). Basophile cells were incubated in 100 μL 1×wash buffer containing the final surfactant concentration as the correct dilutions were prepared beforehand. Cell labeling, lysis and fixation was performed according to manufacturer instructions and subsequently analyzed using a BD FORTESSA flow cytometer. Leucocytes are gated via forward and sideward scatter. The Basophile subpopulation was gated on CD123 and IgE staining. Finally, activated Basophile cells were identified via CD203c and CD63 gating. All fluorescently labeled antibodies were provided in the kit stated above.

protein 1 = experiment: Equilibrium surface tension, pendant-drop tensiometer (protein displacement at air/water interface); type: physicochemical; settings: surfactant in histidine buffer, absence or presence of protein 1, compared with protein 1 without surfactant; 60 min
Protocol: The aim of this experiment was to investigate the type of stabilization mechanism which the surfactants employ in protein-containing formulations. A Pendant-Drop Tensiometer was utilized to determine protein (API) displacement by surfactants at the air/water interface. Surfactant interface saturation mitigates the risk of interfacial stress for proteins and associated negative effects potentially impacting protein quality attributes.
The protein corresponding buffer was prepared and sterile filtered using a 0.22 μm filter unit. The surfactant in question was added into the buffer using a 5% stock solution as described earlier.
The buffer surfactant mix was aliquoted in 2 Nalgene bottles. To one of the two bottles was added the respective API in question to reach a final concentration of 1 mg/mL for protein 1 and 10 mg/mL for proteins 2 and 3.
Equilibrium surface tension was measured using the PAT-1M tensiometer (Sinterface). The system was rinsed 12 times with the sample to be measured. A hanging drop of constant volume (20 μL) was measured every second for 60 min. Drug substance samples with and without surfactants were measured at the same day to avoid operator, sample and day to day variations.

dendritic cells = experiment: Dendritic cell activation; type: cell-based, human; settings: 48 h surfactant incubation, compared to LPS activated DC and no-treatment control
Protocol: Dendritic cell activation: Human whole blood was used to extract monocytes using MACS (magnetic activated cell sorting) according to manufacturer's instructions (Miltenyi Biotec Order no. 130-114-980). Cells were incubated for 6 days in respective differentiation media (Miltenyi DC differentiation medium order no. 130-094-812) resulting in dendritic cells. Cells were incubated in medium with surfactants in question for 48 h and subsequently stained for cell activation using fluorescently labeled antibodies (Mouse Anti-Human CD14 PerCP-Cy5.5 order no. 562692 from BD to check monocyte negative; Mouse Anti-Human CD11c BV605 from BD to check dendritic cell differentiation and Mouse Anti-Human CD80 FITC order no. 557226 from BD to check cell activation).

[5] = system: protein 1 (disordered protein); experiment: Orbital shaking forced degradation, particle count by micro-flow-imaging, Protein 1; type: physicochemical; settings: orbital shaking 250 rpm, ambient temperature, 0 h, 7 h and 24 h
Protocol: The API corresponding buffer was prepared with 20 mM Histidine, 220 mM Succrose pH 5.8 in water.
The aim of this experiment was to investigate the effect of amphiphilic surfactants to protect proteins from interfacial stress, such as that which is present during manufacturing, transport and application. As a proxy for this stress the forced degradation assay (orbital shaking), applying mechanical stress, was used in order to determine whether chosen surfactants stabilize three different protein API's (disordered protein, Fab, mAb) against mechanical stress (mitigating particle creation (protein aggregates)).
1.2 mL of sample was aliquoted in each 6R vial (2x). Vials of same sample were pooled after the study in order to generate enough volume for all analytical testing.
Mechanical stress was generated through orbital shaking at 250 rpm at ambient temperature for 0 h, 7 h, 24 h and 48 h using an orbital shaker. Samples were subsequently analyzed via micro-flow-imaging (MFI). Particle count >2 μm/mL was visualized by MF.

Platelets = experiment: Inhibition of platelet aggregation, Whole Blood Aggregometry (WBA); type: cell-based, human; settings: 0.04% or 0.01% surfactant, 10 minutes at 37° C.; agonists AA, TRAP6, collagen, ADP
Protocol: Human whole blood of 6 healthy volunteers was incubated with 0.04% or 0.01% surfactants for 10 minutes at 37° C. Saline solution was used as negative control. Platelets were activated with four independent agonists: arachidonic acid (AA), thrombin receptor activator peptide (TRAP6), collagen and ADP. Aggregation was measured through Whole Blood Aggregometry (WBA).
Whole Blood Aggregometry (WBA) consists of immerging electrodes into whole blood which measure the impedance between them. The addition of a platelet agonist activates the aggregation, resulting in an increase of impedance over time. This increase can be compared between a negative control and a testing sample to derive the degree of platelet inhibition.

- protein purity, relative comparison between surfactants (Protein 5): lower purity
- sum of impurities, relative comparison between surfactants (Protein 5): higher impurities
Substance: Polysorbate 20 [PS20]

- surfactant content left [2]: ~5%
- surfactant content after oxidative stress (H2O2) [3]: stable; also recorded: minor loss
- surfactant content after pH and temperature stress ([4]; citrate buffer): stable
- surfactant content after pH and temperature stress ([4]; histidine buffer): decreased content
- surfactant content after pH and temperature stress ([4]; phosphate buffer): decreased content
- surfactant content after pH and temperature stress ([4]; succinate buffer): decreased content
Substance: Polysorbate 80 [PS80]
- surfactant content (enzymatic degradation by HCPs) [1]: Degradation is observed both at 5 °C and 40 °C

Substance: Vitamin E dimethyl glutarate [VEDG2.2]
- number of activated B cells (%) upon surfactant treatment (Basophile cells): lower level of B-cell activation than TPGS1000
- surfactant content (enzymatic degradation by HCPs) [1]: not affected by enzymatic degradation
- surfactant content left [2]: 88-90%
- susceptibility to chemical degradation (surfactant content over time) ([2]; pull points every 1.5 months): minimal susceptibility to chemical degradation
- equilibrium surface tension / surface activity (protein 1): even higher surface activity resulting in significant drop of surface tension
- mean fluorescence intensity (MFI) fold change, dendritic cell (DC) activation (dendritic cells; listed as VEDG 2.2): perform better than TPGS1000; also recorded: no DC activation
- particle count >2 μm/mL [5]: perform better than TPGS-1000

Substance: Vitamin E dimethyl glutarate [VEDG3.3]
- inhibition of platelet aggregation (Platelets): comparable platelet inhibition values as PS80
- mean fluorescence intensity (MFI) fold change, dendritic cell (DC) activation (dendritic cells; listed as VEDG 3.3): perform better than TPGS1000; also recorded: no DC activation

Source: US20250332263A1, “SURFACTANT STABILIZERS” (NOVARTIS AG, priority 2021, published 2025)
